Data published in publication PMC8143647, “Proteomics of Galápagos Marine Iguanas Links Function of Femoral Gland Proteins to the Immune System” (Molecular & Cellular Proteomics : MCP, 2020).

How the values were obtained:
Bacillus subtilis = assay: Antimicrobial activity, relative growth inhibition in broth microdilution (Gram-pos.); type: cell-based; design: key to Activity against Gram-pos.: ++: highly active (comparable to oncocin); +: moderately active; +/-: moderately active without clear dose dependency; -: no activity; conditions: for Activity against Gram-pos.: Bacillus subtilis in Miller-Hinton broth, inoculum 1-2 x 10^7 cfu/ml, 100 µl + 20 µl test substance, 2n dilution series from 1 mg/ml down to 31 µg/ml, 18-24 h 37 °C, photometer 600 nm, duplicates
Procedure: (§1) Test strains of Bacillus subtilis, Escherichia coli K12 or Escherichia coli BL21 were grown in Miller-Hinton broth (MHB) for 18–20 h at 37 °C with moderate shaking. An inoculum of 1–2 × 10^7 cfu/ml was prepared in fresh MHB and 100 µl of the suspension was pipetted into microtiter plate wells together with 20 µl test substance. Test substances were measured in duplicates. The plates were covered by a plastic seal to prevent evaporation and incubated for further 18–24 h at 37 °C with moderate shaking. The test substances were dissolved in water at a concentration of 1 mg/ml and a 2n dilution series down to 31 µg/ml was prepared in sterile PBS. After incubation, the bacterial growth was estimated with a Photometer at 600 nm and the relative growth inhibition was calculated compared with a control without test substance. As positive control the well-studied AMP oncocin was used.
(§2) We were intrigued by these antimicrobial signatures and sought to systematically analyze the proteome of femoral glands. To this end, we utilized the marine iguana protein database of all detected proteins, and generated a library of potential antimicrobial peptides (AMP) by in-silico sliding window digestion. Here, we generated sequence windows of 8 to 15 amino acids and resulting peptides were predicted for antimicrobial activity by a trained support vector machine (as described in the methods) (Fig. 5). […] To experimentally test the antimicrobial properties of these peptides, we determined growth rate reductions of bacterial cultures in the presence of increasing candidate peptide concentration. As positive control, we used the well-established AMP oncocin ([40]). As negative control, we have picked four peptides predicted to have no AMP activity.

[1] = tested on: Escherichia coli K12 or Escherichia coli BL21; assay: Antimicrobial activity, relative growth inhibition in broth microdilution (Gram-neg.); type: cell-based; design: key to Activity against Gram-neg.: ++: highly active (comparable to oncocin); +: moderately active; +/-: moderately active without clear dose dependency; -: no activity; antimicrobial activity compared with oncocin: dose or concentration left out as unconfirmed; conditions: for Activity against Gram-neg.: Escherichia coli in Miller-Hinton broth, inoculum 1-2 x 10^7 cfu/ml, 100 µl + 20 µl test substance, 2n dilution series from 1 mg/ml down to 31 µg/ml, 18-24 h 37 °C, photometer 600 nm, duplicates
Procedure: as §1, §2

AGVPRFRFGPPE [Iguana-10, predicted antimicrobial peptide from marine iguana proteome, …]
Activity against Gram-pos. (Bacillus subtilis): +/-
Activity against Gram-neg. [1]: ++

GGRRGSI [Iguana-02, predicted antimicrobial peptide from marine iguana proteome, GGRRGSI]
Activity against Gram-pos. (Bacillus subtilis): +/-
Activity against Gram-neg. [1]: +/-

GSFPKEAIVQK [Iguana-07, predicted antimicrobial peptide from marine iguana proteome, …]
Activity against Gram-neg. [1]: +/-

IADPDQFVLKPQ [Iguana-15, predicted antimicrobial peptide from marine iguana proteome, …]
Activity against Gram-pos. (Bacillus subtilis): +/-
Activity against Gram-neg. [1]: +

IFELDGALYR [Iguana-non-04]
Activity against Gram-pos. (Bacillus subtilis): -
Activity against Gram-neg. [1]: -

IIPNEDFS [Iguana-05, predicted antimicrobial peptide from marine iguana proteome, IIPNEDFS]
Activity against Gram-neg. [1]: -

KKLYISKGCMSKSLC [Iguana-04, predicted antimicrobial peptide from marine iguana proteome, …]
dose dependent maximal growth reduction (Bacillus subtilis; B. subtilis cultures, high concentrations required, vs control without test substance, OD 600 nm): ~95%
Activity against Gram-pos. (Bacillus subtilis): ++
antimicrobial activity compared with oncocin ([1]; E. coli cultures, low concentrations between 3 and 60): exceeded even the oncocin activity
dose dependent maximal growth reduction ([1]; E. coli cultures, vs control without test substance, OD 600 nm): approx. 75%
Activity against Gram-neg. [1]: ++

KKPLITMDEIP [Iguana-11, predicted antimicrobial peptide from marine iguana proteome, …]
Activity against Gram-pos. (Bacillus subtilis): ++
Activity against Gram-neg. [1]: +

LKVPELNV [Iguana-non-02]
Activity against Gram-pos. (Bacillus subtilis): -
Activity against Gram-neg. [1]: -

LPTKLDSAFIRKDPFG [Iguana-14, predicted antimicrobial peptide from marine iguana proteome, …]
Activity against Gram-pos. (Bacillus subtilis): +/-
Activity against Gram-neg. [1]: +

LSLSRISIP [Iguana-06, predicted antimicrobial peptide from marine iguana proteome, …]
Activity against Gram-neg. [1]: +/-

LSRPGVLERFLPDKP [Iguana-16, predicted antimicrobial peptide from marine iguana proteome, …]
Activity against Gram-pos. (Bacillus subtilis): +
Activity against Gram-neg. [1]: +

MPKFHMPKF [Iguana-17, predicted antimicrobial peptide from marine iguana proteome, …]
Activity against Gram-pos. (Bacillus subtilis): ++
Activity against Gram-neg. [1]: ++

NLVSVDERLV [Iguana-non-03]
Activity against Gram-pos. (Bacillus subtilis): -
Activity against Gram-neg. [1]: -

RGQYG [Iguana-09, predicted antimicrobial peptide from marine iguana proteome, RGQYG]
Activity against Gram-neg. [1]: +

RGSIGGGRRGSI [Iguana-03, predicted antimicrobial peptide from marine iguana proteome, …]
Activity against Gram-pos. (Bacillus subtilis): +/-
Activity against Gram-neg. [1]: -

RLTPFVEPRY [Iguana-12, predicted antimicrobial peptide from marine iguana proteome, …]
Activity against Gram-pos. (Bacillus subtilis): +/-
Activity against Gram-neg. [1]: +

SALWVVER [Iguana-non-01]
Activity against Gram-pos. (Bacillus subtilis): -
Activity against Gram-neg. [1]: -

SYFVKRPPGV [Iguana-13, predicted antimicrobial peptide from marine iguana proteome, …]
Activity against Gram-pos. (Bacillus subtilis): +/-
Activity against Gram-neg. [1]: +/-

VDKPPYLPRPRPPRRIYNR-NH2 [Oncocin, well-studied AMP used as positive control, …-NH2, reference compound]
Activity against Gram-pos. (Bacillus subtilis): ++
Activity against Gram-neg. [1]: ++

VDPQKV [Iguana-08, predicted antimicrobial peptide from marine iguana proteome, VDPQKV]
Activity against Gram-neg. [1]: +

YKFYKA [Iguana-01, predicted antimicrobial peptide from marine iguana proteome, YKFYKA]
Activity against Gram-pos. (Bacillus subtilis): +
Activity against Gram-neg. [1]: +
